Tests used:
[1] = tested on: human complement produced by human hepatocytes; assay: Complement inhibitor given to human-hepatocyte chimeric mice: survival; format: in vivo, mouse; details: 200 μl of 2 mg/ml, every 2 days to twice a day; human albumin in blood exceeded 3 mg/ml
Method: Also, human hepatocytes in the mouse liver tissue were stained immunologically using an anti-human complement C3 antibody, and presence of a complement C3 in human hepatocytes was confirmed. Therefore, 200 μl of a complement inhibitor (Futhan®) with concentration of 2 mg/ml was administered into the mouse with increased human albumin concentration. Administration frequency was started from once per 2 days. Change in body weight was checked every day, and administration frequency or dose was increased when decrease in body weight was observed (FIG. 3). As the results, the mice with human albumin concentration in blood over 2 mg/ml received the complement inhibitor (Futhan®) every 2 days, and those over 4 mg/ml received every day, and further, those over 6 mg/ml received twice a day (FIG. 3).

human complement (hC3a) = assay: Human complement (hC3a) in blood of chimeric mice by ELISA; format: in vivo, mouse; details: administered vs non-administered chimeric mice
Method: Further, concentration of the human complement (hC3a) in blood of chimeric mice administered or non-administered with the complement inhibitor (Futhan®) was measured by ELISA method. In consequence, it was confirmed that hC3a concentration was lower in chimeric mice administered with the complement inhibitor compared with non-administered mice (FIG. 4).

CYP2C9 = tested on: T1, CYP2C9; assay: Diclofenac 4-hydroxylation activity in mouse liver microsomes; format: in vivo; details: liver microsomes of uPA(-/-)/SCID mouse
T1 construct: to check activity of CYP2C9 in the microsomal fraction sampled from a mouse; from tissue; host or cells: liver microsomal fraction of human-hepatocyte-transplanted chimeric mice (uPA/SCID); donor (human) microsome as comparison
Method: Further, to check activity of CYP2C9 in the microsomal fraction sampled from a mouse, diclofenac 4-hydroxylation activity was measured by adding diclofenac to the microsome. In consequence, diclofenac 4-hydroxylation activity was little detected in the uPA(−/−)/SCID mouse, and induction of activity by administration of a complement inhibitor was not observed also. […] In a chimeric mouse with 89% of replacement ratio, diclofenac 4-hydroxylation activity was confirmed higher than that of donor (human) microsome (FIG. 9).

[2] = tested on: normalized mouse hepatocytes; assay: Growth inhibition of normalized mouse hepatocytes in uPA-Tg/SCID mice; format: in vivo; details: 30 or 60 mg/kg intraperitoneally
Method: Retrorsine was inoculated intraperitoneally in the amount of 30 or 60 mg/kg into a uPA-Tg(+/−)/SCID mouse and a uPA-Tg(+/+)/SCID mouse. As the result, number of colonies of normalized hepatocytes caused by deletion of introduced uPA gene (uPA-Tg(−/−)/SCID) was reduced in the uPA-Tg(+/−)/SCID mouse (FIG. 12).

human hepatocytes = assay: Human albumin in blood of chimeric mice (ELISA); format: in vivo; details: 60 mg/kg intraperitoneally before transplantation; compared with chimeric uPA-Tg(+/+)/SCID mouse
Method: From 1 week after transplantation of human hepatocytes, 10 μl blood samples were taken from the tail of a mouse once or twice per a week, and concentration of human albumin was measured using Quantitative ELISA immunoassay (Bethyl Laboratories Inc.).
Then, the uPA-Tg(+/−)/SCID and the uPA-Tg(+/+)/SCID mice, which were inoculated with 60 mg/kg of retrorsine intraperitoneally, were transplanted with human hepatocytes similarly as in Example 1 to prepare chimeric mice.
As to one chimeric mouse prepared in Example 1, at 100 days after transplantation of human hepatocytes, an anti-mouse Fas antibody which leads mouse hepatocytes to apoptosis by reaction with a Fas antigen thereof was inoculated (0.2 μg/g body weight) into the abdominal cavity of said chimeric mouse twice at the interval of 1 week.

T1 sequence (P11712 whole entry): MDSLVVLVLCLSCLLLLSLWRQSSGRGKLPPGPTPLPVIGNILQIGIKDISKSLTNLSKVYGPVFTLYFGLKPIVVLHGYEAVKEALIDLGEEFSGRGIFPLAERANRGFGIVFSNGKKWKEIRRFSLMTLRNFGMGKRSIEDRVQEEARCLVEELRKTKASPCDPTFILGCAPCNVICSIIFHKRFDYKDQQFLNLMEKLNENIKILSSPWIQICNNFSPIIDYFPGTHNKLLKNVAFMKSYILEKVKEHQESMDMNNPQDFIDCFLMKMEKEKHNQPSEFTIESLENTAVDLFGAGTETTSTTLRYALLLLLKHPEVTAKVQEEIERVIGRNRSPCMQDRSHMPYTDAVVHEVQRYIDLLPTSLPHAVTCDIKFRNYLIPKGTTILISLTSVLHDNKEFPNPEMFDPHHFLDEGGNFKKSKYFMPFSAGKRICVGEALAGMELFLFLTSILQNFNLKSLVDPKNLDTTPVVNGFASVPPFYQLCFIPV

| Compound | survival of chimeric mouse [1] | hC3a concentration in blood (human complement (hC3a)) | induction of diclofenac 4-hydroxylation activity (CYP2C9) | number of colonies of normalized hepatocytes caused by deletion of introduced uPA gene [2] | human albumin concentration in blood of chimeric uPA-Tg(+/-)/SCID mouse (human hepatocytes) |
| --- | --- | --- | --- | --- | --- |
| N=C(N)c1ccc2cc(OC(=O)c3ccc(N=C(N)N)cc3)ccc2c1 [Futhan, nafamostat mesilate] | could live for long period | lower | not observed | – | – |
| retrorsine | – | – | – | reduced | increased to the same level |

Reference: patent publication US7560279B2, “Method of proliferating human hepatocytes and method for obtaining human hepatocytes” (Hiroshima Industrial Promotion Organization, priority 2002, dated 2009)
